Drawing on PubChem BioAssay (NCI), this text covers TGI for eight compounds.

Among the test systems are ACHN renal; RXF 393 renal; MCF7 breast; NCI-H460 lung; MDA-N; OVCAR-5 ovarian; HOP-62 NSCLC; CAKI-1 renal; SK-OV-3 ovarian; T-47D breast.
Holding throughout (assay): NCI tumour cell line growth inhibition, 48 h

Each structure is given as a SMILES string.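 The compound was tested at five concentrations on cells cultured in 96-well plates, with a 48-hour exposure period. Definition used: TGI = concentration required for complete inhibition of growth.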 Where only a bound is given, the exact number is not on record here.

Turning to `C=CC1(C)CCC2C(=CCC3C2(C)CC(O)C(O)C3(C)COC2OC(C(=O)O)C(O)C(O)C2O)C1` (stereo not given) (tested in a mixture with another compound), the TGI in the assay with ACHN renal, with RXF 393 renal, in the assay on MCF7 breast, in the assay on NCI-H460 lung, in the assay on MDA-N and with OVCAR-5 ovarian was > 100 µM each time. Moreover, the TGI with HOP-62 NSCLC, with CAKI-1 renal, in the assay with SK-OV-3 ovarian and in the assay with T-47D breast was > 100 µM in each case.

Turning to `Cc1cc(Cc2cc(C)c(N)cc2N)c(N)cc1N`, the TGI in the assay on ACHN renal, in the assay with RXF 393 renal, in the assay with MCF7 breast, with NCI-H460 lung, in the assay with MDA-N and in the assay with OVCAR-5 ovarian was > 100 µM throughout. Moreover, the TGI with HOP-62 NSCLC, in the assay on CAKI-1 renal, in the assay on SK-OV-3 ovarian and in the assay with T-47D breast was > 100 µM throughout.

For `C=CCN1C[C@H](C)N([C@H](c2ccc(C(=O)NC(CC)CC)cc2)c2cccc(OC)c2)C[C@H]1C`, the TGI in the assay with ACHN renal, in the assay with RXF 393 renal, in the assay on MCF7 breast, in the assay with NCI-H460 lung, with MDA-N and in the assay with OVCAR-5 ovarian was > 100 µM each time. Also, the TGI with HOP-62 NSCLC was > 100 µM; in the assay on CAKI-1 renal, 65.1 µM; in the assay on SK-OV-3 ovarian, > 100 µM; in the assay on T-47D breast it was > 100 µM.

As to `O=C1CCCSC(=O)N1Cc1ccccc1`, the TGI in the assay on ACHN renal, in the assay on RXF 393 renal, in the assay on MCF7 breast, with NCI-H460 lung, in the assay on MDA-N and with OVCAR-5 ovarian was > 100 µM throughout. Further, the TGI in the assay on HOP-62 NSCLC, in the assay with CAKI-1 renal, in the assay with SK-OV-3 ovarian and in the assay on T-47D breast was > 100 µM each time.

Regarding `COc1ccc2cc(NC(=O)N/N=C\c3ccc([N+](=O)[O-])cc3)ccc2c1`, the TGI is > 100 µM in the assay on ACHN renal; 45.1 µM with RXF 393 renal; > 100 µM in the assay with MCF7 breast; > 100 µM in the assay with NCI-H460 lung; > 100 µM in the assay on MDA-N; > 100 µM with OVCAR-5 ovarian. Besides, the TGI is 48.5 µM in the assay on HOP-62 NSCLC, > 100 µM in the assay on CAKI-1 renal, > 100 µM with SK-OV-3 ovarian and > 100 µM with T-47D breast.

Take `COc1ccc(C2CC(c3c(O)ccc4ccccc34)=NN2C(C)=O)cc1OC` (stereo not given): the TGI in the assay on ACHN renal is > 100 µM; in the assay on RXF 393 renal it was 84.2 µM; in the assay with MCF7 breast, 71.5 µM; with NCI-H460 lung, 93.5 µM; with MDA-N, 56.4 µM; with OVCAR-5 ovarian, > 100 µM. In addition, the TGI was 94.4 µM in the assay with HOP-62 NSCLC, > 100 µM in the assay with CAKI-1 renal, > 100 µM in the assay on SK-OV-3 ovarian and > 100 µM in the assay on T-47D breast.

For the compound `O=C1C=CC(=O)c2c1ccc1c3ccccc3n(CCCCCCCCCCCCn3c4ccccc4c4ccc5c(c43)C(=O)C=CC5=O)c21`, the TGI in the assay on ACHN renal, in the assay on RXF 393 renal, in the assay on MCF7 breast, in the assay with NCI-H460 lung, with MDA-N and in the assay on OVCAR-5 ovarian was > 100 µM each time. Further, the TGI in the assay on HOP-62 NSCLC, in the assay with CAKI-1 renal, in the assay with SK-OV-3 ovarian and with T-47D breast was > 100 µM throughout.

Regarding `CCCCCCCCCCCCCCNC(=O)CCC(NC(=O)c1ccc(N(C)Cc2cnc3nc(N)nc(N)c3n2)cc1)C(=O)NCCCCCCCCCCCCCC` (stereo not given), the TGI was 30.1 µM in the assay on ACHN renal; 34.2 µM in the assay on RXF 393 renal; 29.2 µM with MCF7 breast; 13.1 µM with NCI-H460 lung; 21.9 µM with MDA-N; > 48.3 µM in the assay on OVCAR-5 ovarian. Moreover, the TGI with HOP-62 NSCLC was 21.2 µM; in the assay with CAKI-1 renal, > 100 µM; with SK-OV-3 ovarian, 28.3 µM; in the assay on T-47D breast, 38.5 µM.
